Read-outs that look alike come from different tables or passages of the source.
Legend:
[1] = target: T1, equilibrative nucleoside transporter 4 (hENT4) (Homo sapiens, UniProt Q7RTT9); test: inhibition of [3H]2-chloroadenosine uptake at pH […] in PK15-hENT4 cells; assay type: cell-based
T1 construct: gene SLC29A4
T1 sequence (Q7RTT9 1-530): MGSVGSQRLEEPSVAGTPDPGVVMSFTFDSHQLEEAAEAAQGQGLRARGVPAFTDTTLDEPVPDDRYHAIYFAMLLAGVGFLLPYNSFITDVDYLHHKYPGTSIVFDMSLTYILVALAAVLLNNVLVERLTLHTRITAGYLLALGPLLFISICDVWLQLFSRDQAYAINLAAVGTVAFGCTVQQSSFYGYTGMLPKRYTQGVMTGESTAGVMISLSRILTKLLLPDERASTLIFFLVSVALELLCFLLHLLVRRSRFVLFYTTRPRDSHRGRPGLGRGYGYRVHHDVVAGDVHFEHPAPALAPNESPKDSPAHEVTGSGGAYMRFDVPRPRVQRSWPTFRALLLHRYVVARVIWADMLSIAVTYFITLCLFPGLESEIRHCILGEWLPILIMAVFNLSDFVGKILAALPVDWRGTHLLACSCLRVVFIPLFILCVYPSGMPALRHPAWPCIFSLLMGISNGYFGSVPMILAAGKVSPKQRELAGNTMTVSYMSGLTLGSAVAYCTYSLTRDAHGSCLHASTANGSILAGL

[2] = target: T1, equilibrative nucleoside transporter 4 (hENT4); test: radiolabelled substrate uptake kinetics (Km, pH […] high-affinity component) and efflux in PK15-hENT4 cells; assay type: cell-based

IC50 ([1]; read-out: IC50) [nM] | Compound | also measured
– | C[n+]1ccc(-c2ccccc2)cc1 [MPP+, MPP^+] | IC50 [1]: 220000 nM
– | Nc1nc(Cl)nc2c1ncn2[C@@H]1O[C@H](CO)[C@@H](O)[C@H]1O [2-CADO, 2-chloroadenosine] | Km [2]: ~50 µM
~2300 | CCN1/C(=C/c2ccc3ccccc3[n+]2CC)C=Cc2ccccc21 [D22, decynium 22] | –
~2300 | TC-T6000 | –

From publication PMC6753126, “Bidirectional transport of 2-chloroadenosine by equilibrative nucleoside transporter 4 (hENT4): Evidence for allosteric kinetics at acidic pH” (Scientific Reports, 2019)
